Laboratory results from paper PMC9101764, “Synthesis and In Vitro Characterization of Selective Cannabinoid CB2 Receptor Agonists: Biological Evaluation against Neuroblastoma Cancer Cells” (Molecules, 2022).
Read-outs that look alike come from different tables or passages of the source.

Legend:
[1] = target: T1, hCB1R (Homo sapiens, UniProt P21554); assay: [3H]CP55,940 radioligand displacement assay, CHO cell membranes; type: binding; conditions: for displacement of [3H]CP55,940 at hCB1R: CHO membranes, 0.1 nM-10 μM compounds
T1 construct: expressed in transfected cells; host or cells: CHO cells (membranes)
Procedure: (§1) CHO cells stably expressing hCB1R or hCB2R were maintained at 37 °C and 5% CO2 in Gibco Ham’s F-12 nutrient mix (Fisher Scientific, Loughborough, UK ) supplemented with 2 mM L-glutamine, 10% fetal bovine serum (FBS), 0.6% penicillin−streptomycin (Fisher Scientific, Loughborough UK), and the disulfate salt of geneticin (G418) as previously described (Sigma-Aldrich, Poole, UK). For subsequent radioligand displacement assays, membranes were prepared by scraping cells from flasks, centrifuging the cells, and storing the cell pellet at −20 °C. When required for us, cell pellets were defrosted and diluted in tris buffer (50 mM Tris-HCl and 50 mM Tris-base). As we have described in previous studies, HitHunter (cAMP) and PathHunter (βarrestin2) CHO-K1 cells stably expressing hCB1R or hCB2R from DiscoveRx® (Eurofins, Fremont, CA, USA) were maintained at 37 °C, 5% CO2 in F-12 DMEM containing 10% FBS and 1% Pen/Strep with 800 µg/mL geneticin (HitHunter) or 800 µg/mL G418 and 300 µg/mL hygromycin B (PathHunter).
(§2) We have previously described radioligand displacement assays in detail. […] Binding reactions were terminated by ice-cold tris binding buffer and subsequent vacuum filtration (24-well sampling manifold (Brandel cell harvester; Brandel Inc., Gaithersburg, MD, USA)) using Brandel GF/B filters soaked in wash buffer at 4 °C for at least 24 h. Filters were washed with 1.2 mL of tris-binding buffer six times, then oven-dried for 60 min before being incubated in 3 mL of scintillation fluid (Ultima Gold XR, PerkinElmer, Seer Green, Buckinghamshire, UK). Radioactivity was quantified by liquid scintillation spectrometry. All compounds were first prepared at 10 mM solutions in DMSO. The final vehicle concentration for assays was 0.1% DMSO. All assays were performed in duplicate.
(§3) Estimates of Ki, EC50, and Emax were determined using non-linear regression three-parameters (GraphPad, Prism, v. 9.0).

[2] = target: T2, hCB2R (Homo sapiens, UniProt P34972); assay: as above; type: binding; conditions: for displacement of [3H]CP55,940 at hCB2R: CHO membranes, 0.1 nM-10 μM compounds
T2 construct: host or cells: HitHunter CHO-K1 cells
Procedure: as §1, §2, §3

[3] = test system: SH-SY5Y cells; assay: Sulforhodamine B (SRB) cell viability assay; type: cell-based, human; conditions: for effect on cell viability: 24 h, 48 h and 72 h, 2.5–40 µM; for IC50: Homo sapiens, 72 h of treatment, SRB, cis/trans mixture
Procedure: We tested the anti-proliferative activity of the novel CB2R agonists FG158a, FG160a, FG161a, and LV62 in neuroblastoma cell lines (Figure 4). The compounds were assayed as a mixture of cis and trans isomers. […] After 72 h of treatment, the effect was higher and could also be observed at lower concentrations. The inhibitory effect was confirmed in another neuroblastoma cell line, SK-N-BE cells.
Human neuroblastoma SHSY5Y and SK-N-BE cell lines were grown in DMEM (GIBCO, Paisley, UK) and MEM (Sigma-Aldrich, St.Louis, MO, USA), respectively, supplemented with 2 mM l-glutamine, […], 50 units/mL penicillin and 10% heat-inactivated fetal bovine serum (FBS) in a humidified atmosphere (5% CO2 at 37 °C). Cells were detached as previously described with 0.25% trypsin (Sigma-Aldrich) at 70–80% confluence.
(§4) Cells seeded for 24 h in triplicate in 96-well plates at a density of 8000 cells/well were left to adhere overnight. CB2R agonists were added to the culture in triplicate at concentrations ranging from 2.5–40 µM. After 24 h, 48 h, and 72 h, cells were fixed, shaking for 2 h at 4 °C with 50% v/v trichloroacetic acid and washed with distilled water. Cells left overnight to dry were stained with 0.4% w/v SRB in 1% v/v acetic acid (at room temperature for 30 min on a shaker) and then washed with 1% acetic acid to allow for the removal of the unbound dye. TRIS-HCl 10 mM, pH 7.4 was added to the cells and absorbance was measured at 495 nm as previously shown using a Glomax® Discover Microplate Reader (Promega, Madison, WI, USA). In combinatory assays, similar procedures were adopted and the CB2R antagonist SR144528 (1 µM) was added 1 h before the CB2 agonists (10, 20 and 40 µM) to SHSY5Y cells that were harvested as described above after 72 h of incubation.
Figure 4 Inhibition of cell viability. The effect on cell viability by CB2R agonists was determined by sulforhodamine B (SRB) assays in SH-SY5Y and SK-N-BE cell lines. SH-SY5Y cells were treated with the compounds indicated in the figure for 24 h (A), 48 h (B), and 72 h (C) at the concentrations reported in the histograms. SK-N-BE cells were treated with the same compounds for 72 h (D). Figures report cell viability (mean of at least 3 independent experiments ± SEM) as percent of cell survival vs. untreated cells (considered as 100% of survival). […] The statistical significance was calculated with two-way ANOVA using Dunnett’s multiple comparisons test.

[4] = target: T2, hCB2R; assay: PathHunter β-arrestin2 recruitment assay in CHO cells; type: cell-based
Procedure: Compounds FG158a, FG160a, FG161a, and LV62 were also evaluated for their ability to recruit β-arrestin2, since G protein-coupled receptors also interact with β-arrestin, which facilitates receptor internalization, recycling, degradation, and signaling.
as §1
The quantification of β-arrestin2 recruitment using the DiscoveRx PathHunter assay has been described by our group previously and is summarized here.. Twenty thousand cells/well were grown overnight in Opti-MEM containing 1% FBS at 37 °C and 5% CO2 in low-volume 96 well plates. The next day, cells were treated with compounds for 90 min at 37 °C. Detection solution was added to cells according to the manufacturer’s directions (DiscoveRx) and cells were stored for 60 min at room temperature. After this incubation, chemiluminescence was quantified on a Cytation5 plate reader (top read, gain 200, integration time 10,000 ms).
as §3
(§5) Data are fitted to a non−linear regression (three parameter model, GraphPad v. 9.0). Data are mean ± S.E.M. of 6 independent experiments performed in triplicate.

[5] = target: T2, hCB2R; assay: HitHunter cAMP assay: inhibition of FSK-stimulated cAMP accumulation in CHO cells; type: cell-based; conditions: for modulation of cAMP response: CHO cells expressing hCB2R
Procedure: For the cAMP inhibition assay, cells were treated with 10 μM FSK and synthetized compounds for 90 min to assess compound concentration-dependent activity.
as §1
The quantification of FSK-stimulated cAMP accumulation using the DiscoveRx HitHunter assay (DiscoveRx, Eurofins, Fremont, CA, USA) has been described in detail previously elsewhere. Briefly, 20,000 cells/well were plated in low-volume 96-well plates and incubated overnight in Opti-MEM with 1% FBS at 37 °C and 5% CO2. The next day, the media were replaced with cell assay buffer (DiscoveRx). Immediately after this, the cells were simultaneously treated with 10 µM FSK and ligands for 90 min. Subsequent additions of cAMP antibody solution and cAMP working detection solutions followed the manufacturer’s directions (DiscoveRx) and cells were stored for 60 min at room temperature. cAMP solution A (DiscoveRx) was added according to the manufacturer’s directions followed by another 60 min room temperature incubation prior to chemiluminescence being measured on a Cytation5 plate reader (top read, gain 200, integration time 10,000 ms).
as §3, §5

[6] = test system: SH-SY5Y cells; parameters: method as in PMID 26842917; conditions: presumably via a CB2R-independent mechanism; cited from earlier work
[7] = test system: SH-SY5Y cells; assay: SRB cell viability assay with pre-incubation of CB2R antagonist SR144528; type: cell-based, human; conditions: SR144528 1 µM added 1 h before, 72 h, agonists at 10, 20 and 40 µM
Procedure: To address a CB2R-mediated mechanism, we tested FG158a, LV62, and FG160a at inhibitory concentrations in SH-SY5Y cells pre-incubated with the CB2R antagonist SR144528. After 72 h of treatment, we observed a reversion in cell viability at 20 and 40 µM of FG158a and FG160a in the presence of SR144528. The inhibitory effect of LV62 was reverted only at 40 µM (Figure 5).
as §4, with “In combinatory assays, similar procedures were adopted and the CB2R antagonist SR144528 (1 µM) was added 1 h before the CB2 agonists (10, 20 and 40 µM) to SHSY5Y cells that were harvested as described above after 72 h of incubation.” left out
Figure 5 CB2R–mediated effect on cell viability. […] Figures (A–C) report cell viability (mean of 3 independent experiments) expressed as absorbance (Abs). The statistical significance was calculated with two-way ANOVA using Tukey’s multiple comparisons test (* p ≤ 0.05).

[8] = CHO cells expressing human CB2R, 90 min
[9] = CHO cells expressing human CB2R, 10 μM FSK, 90 min

T1 sequence (P21554 whole entry): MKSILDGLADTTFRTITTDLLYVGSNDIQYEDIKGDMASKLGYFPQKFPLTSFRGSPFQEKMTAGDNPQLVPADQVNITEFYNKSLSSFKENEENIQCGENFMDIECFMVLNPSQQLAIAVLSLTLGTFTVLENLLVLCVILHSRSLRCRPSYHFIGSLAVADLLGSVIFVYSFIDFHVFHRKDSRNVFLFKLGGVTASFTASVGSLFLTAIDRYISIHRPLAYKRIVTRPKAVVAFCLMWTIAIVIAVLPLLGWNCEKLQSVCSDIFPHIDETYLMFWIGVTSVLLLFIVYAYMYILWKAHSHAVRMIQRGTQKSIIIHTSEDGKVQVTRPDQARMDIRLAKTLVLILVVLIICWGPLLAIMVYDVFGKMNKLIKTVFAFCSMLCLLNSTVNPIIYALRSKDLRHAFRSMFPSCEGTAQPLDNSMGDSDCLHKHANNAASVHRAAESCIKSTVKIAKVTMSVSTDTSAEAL
T2 sequence (P34972 whole entry): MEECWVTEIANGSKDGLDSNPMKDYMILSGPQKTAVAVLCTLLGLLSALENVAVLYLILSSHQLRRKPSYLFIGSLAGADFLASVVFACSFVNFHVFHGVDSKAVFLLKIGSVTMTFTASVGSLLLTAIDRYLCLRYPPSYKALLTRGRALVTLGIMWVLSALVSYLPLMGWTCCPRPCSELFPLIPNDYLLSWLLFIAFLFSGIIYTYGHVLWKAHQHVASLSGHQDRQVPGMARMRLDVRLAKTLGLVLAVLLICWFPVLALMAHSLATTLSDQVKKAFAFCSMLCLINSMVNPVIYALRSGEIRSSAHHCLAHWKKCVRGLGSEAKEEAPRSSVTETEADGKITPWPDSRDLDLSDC

Row | SMILES | Ki [1] | displacement of [3H]CP55,940 at hCB1R [1] | Ki [2] | displacement of [3H]CP55,940 at hCB2R [2] | effect on cell viability [3] | IC50 [3] | EC50 [4] | β-Arrestin2 Recruitment Emax (% CP55,940) ± S.E.M [4, 8] | melting point | EC50 [5] | modulation of cAMP response ([5]; 10 μM FSK, 90 min) | cAMP Inhibition Emax (% CP55,940) ± S.E.M [5, 9] | Ki ([1]; read-out: CB1R Ki) | EC50 ([4]; CHO cells expressing human CB2R, 90 min, read-out: β-Arrestin2 Recruitment EC50 (95% C.I.)) | EC50 ([5]; CHO cells expressing human CB2R, 10 μM FSK, 90 min, read-out: cAMP Inhibition EC50 (95% C.I.)) | effect on SH-SY5Y cell proliferation [6] | reversion in cell viability in the presence of SR144528, agonist concentration [7] | β-arrestin2 recruitment ([4]; CHO cells expressing hCB2R, 90 min)
1 | CC1CCC(NC(=O)c2cc3cccnc3n(CCCCCCl)c2=O)CC1 (stereo not drawn) [FG160a, 1-(5-chloropentyl)-N-(4-methylcyclohexyl)-2-oxo-1,2-dihydro-1,8-naphthyridine-3-carboxamide] | > 10 µM | not able to displace [^3H]CP55,940 | 16.5 nM | fully displaced [^3H]CP55,940 | inhibited cell viability | 13.2 µM | > 10 µM | 41 ± 1.0 % CP55,940 | 124 to 126 °C | 600 nM | able to modulate the cAMP response | 90 ± 3.1 % CP55,940 | – | – | – | – | – | –
2 | CC1CCC(NC(=O)c2cc3cccnc3n(CCCCCN=[N+]=[N-])c2=O)CC1 (stereo not drawn) [FG161a, 1-(5-azidopentyl)-N-(4-methylcyclohexyl)-2-oxo-1,2-dihydro-1,8-naphthyridine-3-carboxamide] | – | not able to displace [^3H]CP55,940 | 45 nM | fully displaced [^3H]CP55,940 | inhibited cell viability | 27.5 µM | – | 47 ± 1.8 % CP55,940 | 115 to 117 °C | – | able to modulate the cAMP response | 78 ± 11 % CP55,940 | > 10 µM | > 10 µM | 760 nM | – | – | –
3 | CCCC(C)(C)c1ccc2c(c1)OC(C)(C)[C@@H]1CC=C(C)C[C@@H]21 [JWH-133] | – | – | – | – | – | – | – | – | – | – | – | – | – | – | – | inhibits SH-SY5Y cell proliferation | – | –
4 | CC1CCC(NC(=O)c2cc3cccnc3n(CCCCCO)c2=O)CC1 (stereo not drawn) [LV62, reference compound] | > 10 µM | not able to displace [^3H]CP55,940 | 37 nM | – | inhibited cell viability | 38.1 µM | 0.063 µM | 65 ± 1.4 % CP55,940 | – | 34 nM | – | 110 ± 8.8 % CP55,940 | – | – | – | – | only at 40 | produced an increase in the β-arrestin2 recruitment
